Results on three molecules are retold here after BindingDB's records for doi:10.7270/Q2X34VZF (Burnham Center For Chemical Genomics, 2011).

The assay addresses Phospholipase A2 (Homo sapiens, UniProt P04054). The assay can be described thus: phospholipase A2 activity inhibition – biochemical, set 2, counter-screen for ATG4B inhibitor project, dose response (AID 588586).

Sequence of Phospholipase A2 (P04054 whole entry): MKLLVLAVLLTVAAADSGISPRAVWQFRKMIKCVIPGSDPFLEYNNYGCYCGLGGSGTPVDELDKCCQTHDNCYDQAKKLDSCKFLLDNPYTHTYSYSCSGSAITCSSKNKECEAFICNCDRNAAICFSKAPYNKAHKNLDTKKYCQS

One may read the IC50 as the concentration needed to halve the response being measured. Read a high IC50 as weaker potency in that assay. Regarding `CC1=CC(/C=N/n2c(COc3ccccc3)nc3ccccc3c2=O)C(=O)C([N+](=O)[O-])=C1` (stereo not drawn) [3-[[(E)-(3-methyl-5-nitro-6-oxocyclohexa-2,4-dien-1-ylidene)methyl]amino]-2-(phenoxymethyl)quinazolin-4-one], the IC50 worked out at 10.5 µM. Then `Oc1ccc2ccccc2c1CN=Nc1nnc(-c2ncc[nH]2)c2ccccc12` [SMR000151639], with 2.47 µM; and `Cc1ccc(NC2=NC(=O)C(=Cc3c(C)[nH]c4ccccc34)S2)cc1` [5-[(2-methyl-1H-indol-3-yl)methylene]-2-[(4-methylphenyl)imino]-1,3-thiazolidin-4-one], with 22.3 µM.
